Assay: in vitro
Conditions: human
Method: For the antiviral assay utilizing MT4 cells, 0.4 μL of […] test concentration of 3-fold serially diluted compound in DMSO was added to 40 μL of cell growth medium (RPMI 1640, 10% FBS, 1% penicilline/Streptomycine, 1% L-Glutamine, 1% HEPES) in each well of 384-well assay plates (10 concentrations) in quidruplicate.
1 mL aliquots of 2×10^6 MT4 cells are pre-infected for 1 and 3 hours respectively at 37° C. with 25 μL (MT4) or of either cell growth medium (mock-infected) or a fresh 1:250 dilution of an HIV-IIIb concentrated ABI stock (0.004 m.o.i. for MT4 cells). Infected and uninfected cells are diluted in cell growth medium and 35 μL of 2000 (for MT4) cells is added to each well of the assay plates.
Assay plates were then incubated in a 37° C. incubator. After 5 days of incubation, 25 μL of 2× concentrated CellTiter-Glo™ Reagent (catalog #G7573, Promega Biosciences, Inc., Madison, Wis.) was added to each well of the assay plate. Cell lysis was carried out by incubating at room temperature for 2-3 minutes, and then chemiluminescence was read using the Envision reader (PerkinElmer).

| Structure (SMILES) | CC50 at 5 days (CC50 nM in MT-4) [nM] | CC50 at 5 days [nM] |
| --- | --- | --- |
| O=C(NCc1ccc(F)cc1F)c1cn2c(c(O)c1=O)C(=O)N1[C@@H]3CC[C@@H](C3)O[C@H]1C2 (racemic) [Compound 1, N-(2,4-difluorobenzyl)-8-hydroxy-7,9-dioxo-2,3,4,5,7,9,13,13a-octahydro-2,5-methanopyrido[1′,2′:4,5]pyrazino[2,1-b][1,3]oxazepine-10-carboxamide] | 5820 |  |
| C[C@@H](NC(=O)c1cn2c(c(O)c1=O)C(=O)N1[C@H]3CC[C@H](C3)O[C@@H]1C2)c1ccc(F)cc1F [Compound 12, (2R,5S,13aR)-N—((R)-1-(2,4-difluorophenyl)ethyl)-8-hydroxy-7,9-dioxo-2,3,4,5,7,9,13,13a-octahydro-2,5-methanopyrido[1′,2′:4,5]pyrazino[2,1-b][1,3]oxazepine-10-carboxamide] | 3340 |  |
| C[C@H](NC(=O)c1cn2c(c(O)c1=O)C(=O)N1[C@H]3CC[C@H](C3)O[C@@H]1C2)c1ccc(F)cc1F [Compound 14, (2R,5S,13aR)-N—((S)-1-(2,4-difluorophenyl)ethyl)-8-hydroxy-7,9-dioxo-2,3,4,5,7,9,13,13a-octahydro-2,5-methanopyrido[1′,2′:4,5]pyrazino[2,1-b][1,3]oxazepine-10-carboxamide] | 4940 |  |
| C[C@H](NC(=O)c1cn2c(c(O)c1=O)C(=O)N1[C@@H]3CC[C@@H](C3)O[C@H]1C2)c1ccc(F)cc1 [Compound 21, (2S,5R,13aS)-N—((S)-1-(4-fluorophenyl)ethyl)-8-hydroxy-7,9-dioxo-2,3,4,5,7,9,13,13a-octahydro-2,5-methanopyrido[1′,2′:4,5]pyrazino[2,1-b][1,3]oxazepine-10-carboxamide] | 13000 |  |
| C[C@H](NC(=O)c1cn2c(c(O)c1=O)C(=O)N1[C@H]3CC[C@H](C3)O[C@@H]1C2)c1ccc(F)cc1 [Compound 22, (2R,5S,13aR)-N—((S)-1-(4-fluorophenyl)ethyl)-8-hydroxy-7,9-dioxo-2,3,4,5,7,9,13,13a-octahydro-2,5-methanopyrido[1′,2′:4,5]pyrazino[2,1-b][1,3]oxazepine-10-carboxamide] | 4430 |  |
| O=C(NCc1cc(F)cc(F)c1)c1cn2c(c(O)c1=O)C(=O)N1[C@@H]3CC[C@@H](C3)O[C@H]1C2 [Compound 24, (2S,5R,13aS)-N-(3,5-difluorobenzyl)-8-hydroxy-7,9-dioxo-2,3,4,5,7,9,13,13a-octahydro-2,5-methanopyrido[1′,2′:4,5]pyrazino[2,1-b][1,3]oxazepine-10-carboxamide] | 12100 |  |
| O=C(NCc1ccc(F)c(C(F)(F)F)c1)c1cn2c(c(O)c1=O)C(=O)N1[C@@H]3CC[C@@H](C3)O[C@H]1C2 [Compound 25, (2S,5R,13aS)-N-(4-fluoro-3-(trifluoromethyl)benzyl)-8-hydroxy-7,9-dioxo-2,3,4,5,7,9,13,13a-octahydro-2,5-methanopyrido[1′,2′:4,5]pyrazino[2,1-b][1,3]oxazepine-10-carboxamide] | 5230 |  |
| O=C(NCc1ccc(Cl)c(F)c1)c1cn2c(c(O)c1=O)C(=O)N1[C@@H]3CC[C@@H](C3)O[C@H]1C2 [Compound 26, (2S,5R,13aS)-N-(4-chloro-3-fluorobenzyl)-8-hydroxy-7,9-dioxo-2,3,4,5,7,9,13,13a-octahydro-2,5-methanopyrido[1′,2′:4,5]pyrazino[2,1-b][1,3]oxazepine-10-carboxamide] | 8840 |  |
| O=C(NC1(c2ccc(F)cc2F)CC1)c1cn2c(c(O)c1=O)C(=O)N1C(C2)O[C@H]2CC[C@@H]1C2 (stereo partly drawn) [Compound 27, (2S,5R)-N-(1-(2,4-difluorophenyl)cyclopropyl)-8-hydroxy-7,9-dioxo-2,3,4,5,7,9,13,13a-octahydro-2,5-methanopyrido[1′,2′:4,5]pyrazino[2,1-b][1,3]oxazepine-10-carboxamide] | 8750 |  |
| O=C(NC1(c2ccc(F)cc2F)CC1)c1cn2c(c(O)c1=O)C(=O)N1C(C2)O[C@@H]2CC[C@H]1C2 (stereo partly drawn) [Compound 31, (2R,5S)-N-(1-(2,4-difluorophenyl)cyclopropyl)-8-hydroxy-7,9-dioxo-2,3,4,5,7,9,13,13a-octahydro-2,5-methanopyrido[1′,2′:4,5]pyrazino[2,1-b][1,3]oxazepine-10-carboxamide] | 4520 |  |
| O=C(NC1(c2ccc(F)cc2F)CCCCC1)c1cn2c(c(O)c1=O)C(=O)N1C(C2)O[C@H]2CC[C@@H]1C2 (stereo partly drawn) [Compound 34, (2S,5R)-N-(1-(2,4-difluorophenyl)cyclohexyl)-8-hydroxy-7,9-dioxo-2,3,4,5,7,9,13,13a-octahydro-2,5-methanopyrido[1′,2′:4,5]pyrazino[2,1-b][1,3]oxazepine-10-carboxamide] |  | 3580 |
| O=C(NC1(c2ccc(F)cc2F)CCOCC1)c1cn2c(c(O)c1=O)C(=O)N1C(C2)O[C@H]2CC[C@@H]1C2 (stereo partly drawn) [Compound 35, (2S,5R)-N-(4-(2,4-difluorophenyl)tetrahydro-2H-pyran-4-yl)-8-hydroxy-7,9-dioxo-2,3,4,5,7,9,13,13a-octahydro-2,5-methanopyrido[1′,2′:4,5]pyrazino[2,1-b][1,3]oxazepine-10-carboxamide] | 15500 |  |
| O=C(NCc1ncccc1C(F)(F)F)c1cn2c(c(O)c1=O)C(=O)N1[C@@H]3CC[C@@H](C3)O[C@H]1C2 [Compound 49, (2S,5R,13aS)-8-hydroxy-7,9-dioxo-N-((3-(trifluoromethyl)pyridin-2-yl)methyl)-2,3,4,5,7,9,13,13a-octahydro-2,5-methanopyrido[1′,2′:4,5]pyrazino[2,1-b][1,3]oxazepine-10-carboxamide] | 52200 |  |
| O=C(NCc1ccc(F)cc1OC1CC1)c1cn2c(c(O)c1=O)C(=O)N1[C@@H]3CC[C@@H](C3)O[C@H]1C2 [Compound 52, (2S,5R,13aS)-N-(2-cyclopropoxy-4-fluorobenzyl)-8-hydroxy-7,9-dioxo-2,3,4,5,7,9,13,13a-octahydro-2,5-methanopyrido[1′,2′:4,5]pyrazino[2,1-b][1,3]oxazepine-10-carboxamide] | 12900 |  |
| O=C(NCc1ccc(F)cc1OC1CC1)c1cn2c(c(O)c1=O)C(=O)N1[C@H]3CC[C@H](C3)O[C@@H]1C2 [Compound 53, (2R,5S,13aR)-N-(2-cyclopropoxy-4-fluorobenzyl)-8-hydroxy-7,9-dioxo-2,3,4,5,7,9,13,13a-octahydro-2,5-methanopyrido[1′,2′:4,5]pyrazino[2,1-b][1,3]oxazepine-10-carboxamide] | 3350 |  |
| O=C(NCc1ccc(F)cc1C(F)(F)F)c1cn2c(c(O)c1=O)C(=O)N1[C@H]3CC[C@H](C3)O[C@@H]1C2 [Compound 62, (2R,5S,13aR)-N-(4-fluoro-2-(trifluoromethyl)benzyl)-8-hydroxy-7,9-dioxo-2,3,4,5,7,9,13,13a-octahydro-2,5-methanopyrido[1′,2′:4,5]pyrazino[2,1-b][1,3]oxazepine-10-carboxamide] | 3490 |  |
| O=C(NCc1cc(Cl)c(F)cc1F)c1cn2c(c(O)c1=O)C(=O)N1[C@H]3CC[C@H](C3)O[C@@H]1C2 [Compound 65, (2R,5S,13aR)-N-(5-chloro-2,4-difluorobenzyl)-8-hydroxy-7,9-dioxo-2,3,4,5,7,9,13,13a-octahydro-2,5-methanopyrido[1′,2′:4,5]pyrazino[2,1-b][1,3]oxazepine-10-carboxamide] | 2510 |  |

— patent publication US9663528B2, “Substituted 1,2,3,4,6,8,12,12a-octahydro-1,4-methanodipyrido[1,2-a:1',2'-d]pyrazines and methods for treating viral infections” (priority 2012, dated 2017)
